This is an account of results in ChEMBL document CHEMBL1153839, “Pulmonary versus systemic delivery of antibiotics: comparison of vancomycin dispositions in the isolated rat lung” (Antimicrob Agents Chemother, 2007).

Data set [1] can be described thus: Drug level in Wistar rat bronchoalveolar fluid at 500 ug, administered through systemic route. The data set is classed as ADME, tissue-based, Lung. Particulars: in vivo.
The nature of data set [2]: Ratio of drug level in bronchoalveolar fluid to lung in Wistar rat at 500 ug, administered through pulmonary route under respiratory mode of 60 respirations per minute, 2 ml/kg tidal volume. The data set is classed as ADME. Particulars: in vivo, other.
Data set [3] is described as follows: Ratio of drug level in bronchoalveolar fluid to lung in Wistar rat at 500 ug, administered through pulmonary route under respiratory mode of 30 respirations per minute, 4 ml/kg tidal volume. The class given is ADME. Particulars: in vivo, inhaled_or_intranasal.
Data set [4] can be described thus: Ratio of drug level in bronchoalveolar fluid to efferent fluid in Wistar rat at 500 ug, administered through pulmonary route under respiratory mode of 30 respirations per minute, 4 ml/kg tidal volume. The data set is classed as ADME. Particulars: in vivo, inhaled_or_intranasal.
Data set [5] is described as follows: Ratio of drug level in bronchoalveolar fluid to efferent fluid in Wistar rat at 500 ug, administered through pulmonary route under respiratory mode of 60 respirations per minute, 2 ml/kg tidal volume. The data set is classed as ADME. As to conditions: in vivo, inhaled_or_intranasal.
Data set [6] in a line: Ratio of drug level in lung to efferent fluid in Wistar rat at 500 ug, administered through pulmonary route under respiratory mode of 30 respirations per minute, 4 ml/kg tidal volume. The class given is ADME. Particulars: in vivo, inhaled_or_intranasal.
Data set [7] can be described thus: Ratio of drug level in lung to efferent fluid in Wistar rat at 500 ug, administered through pulmonary route under respiratory mode of 60 respirations per minute, 2 ml/kg tidal volume. The class given is ADME. Particulars: in vivo, inhaled_or_intranasal.
The test system of data set [8] is Lung. Put plainly: Mean transit time in Wistar rat lung at 500 ug, administered through systemic route under respiratory mode of 30 respirations per minute, 4 ml/kg tidal volume. The data set is classed as ADME, tissue-based. Particulars: in vivo, other.
A short description of data set [9]: AUC (0 to infinity) in Wistar rat lung at 500 ug, administered through systemic route under respiratory mode of 30 respirations per minute, 4 ml/kg tidal volume. Details: dose 500 ug, time infinity. The data set is classed as ADME.
Data set [10] concerns Lung. The experiment in a line: Drug level in Wistar rat lung at 500 ug, administered through systemic route. The data set is classed as ADME, tissue-based. As to conditions: in vivo.
In data set [11] the test system is Lung. Put plainly: Mean transit time in Wistar rat lung at 500 ug, administered through systemic route under respiratory mode of 60 respirations per minute, 2 ml/kg tidal volume. The class given is ADME, tissue-based. As to conditions: in vivo, other.
Data set [12] can be described thus: Ratio of drug level in lung to efferent fluid in Wistar rat at 500 ug, administered through systemic route under respiratory mode of 60 respirations per minute, 2 ml/kg tidal volume. The data set is classed as ADME. Particulars: in vivo, other.
Data set [13] is described as follows: Ratio of drug level in lung to efferent fluid in Wistar rat at 500 ug, administered through systemic route under respiratory mode of 30 respirations per minute, 4 ml/kg tidal volume. The data set is classed as ADME. Particulars: in vivo, other.
Data set [14] can be described thus: AUC (0 to infinity) in Wistar rat lung at 500 ug, administered through systemic route under respiratory mode of 60 respirations per minute, 2 ml/kg tidal volume. The class given is ADME. The arrangement: dose 500 ug, time infinity.

The structures appear in SMILES notation. Some results are limits rather than exact numbers.

Turning to `CN[C@H](CC(C)C)C(=O)N[C@H]1C(=O)N[C@@H](CC(N)=O)C(=O)N[C@H]2C(=O)N[C@H]3C(=O)N[C@H](C(=O)N[C@H](C(=O)O)c4cc(O)cc(O)c4-c4cc3ccc4O)[C@H](O)c3ccc(c(Cl)c3)Oc3cc2cc(c3O[C@@H]2O[C@H](CO)[C@@H](O)[C@H](O)[C@H]2O[C@H]2C[C@](C)(N)[C@H](O)[C@H](C)O2)Oc2ccc(cc2Cl)[C@H]1O` [VANCOMYCIN], the Drug uptake in data set [1] stood at 0.1 µg/g; in [10] it was 0.11 µg/g. Moreover, the Ratio is on record as 4.69 in data set [2]; 7.1 in data set [3]; 17.89 in data set [4]; over 17.89 in [5]; 9.44 in data set [6]; over 9.44 in data set [7]. Besides, the Ratio is given as 0.49 in [12] and 0.5 in [13]. The MTT was 0.78 min in data set [8] and 0.47 min in data set [11]. In addition, the AUC(0-inf) was 2140 ng·h/mL in data set [9] and 1830 ng·h/mL in [14].
